# Measured values taken from patent US5496703A, “Indirect immunoassay for dioxinlike compounds” (priority 1993, dated 1996).
# Tests used:
# hepatic Ah receptor = conditions: room temperature, ligand concentration 10^-9 M; cited from earlier work
# [1] = single human; cited from earlier work
# [2] = system: total hepatic S-9 protein tyrosylphosphorylation; assay: ELISA with antiphosphotyrosine monoclonal antibody, total hepatic S-9 protein tyrosylphosphorylation, mice dosed i.p.; type: in vivo, C57BL/6 mice
# Method: Female, C57BL/6 mice (or any cytochrome P-450IA1 inducible strain) were obtained from Harton Sprague Dawley (Indianapolis, Ind.). Experiments were performed using four to six week old, female mice weighing approximately 16 to 20 g. Mice were fed Prolab RMH 1000 rat, mouse and hamster food (Agway, Cortland, N.Y.) and received tap water ad libitum. All mice were housed three to five per cage and maintained on a photoperiod of 12 hours. Mice were killed 24 hours following an intraperitoneal injection of either corn oil alone or TCDD (Analabs) at 0.25, 0.5, 1, 2, 4, 10, 50 μg/kg, the volume of the injections ranged from 0.1 to 0.2 ml per mouse. Hepatic S-9 fractions were prepared by homogenizing the liver in 3 times the volume of 0.15M KCl. Following a 9000×g centrifugation for 20 minutes, the supernatant (S-9) fraction was carefully removed and quickly frozen for storage at -80° C.
# ELISA were performed with 96-well microtiter plates precoated with antigen. S-9 was used as antigen and was prepared as a series of geometric dilutions ranging from 0.4 to 500 μg protein/mL PBS. One-tenth mL from each dilution was promptly pipetted into the wells of a the microtiter plate in quadruplicate. Plates were incubated overnight at 4° C. After washing with 0.05% Tween 20 (polyoxyethylenesorbitan monolaurate) in phosphate buffered saline (PBS), individual wells were saturated with 0.2 mL bovine serum albumin (20 mg/mL in PBS) for 2 hours at 37° C. Wells were then incubated with antiphosphotyrosine monoclonal antibody (1.5 μg/mL ascites fluid) in 1 mg/mL bovine serum albumin and 0.05% Tween 20 in PBS, and bound for 1 to 1.5 hours at 22° C. Incubation with horseradish peroxidase-linked antimouse IgG (Sigma, St. Louis; 0.5×10^3 mg IgG/mL PBS) and subsequent washing was performed as with the original monoclonal antibody. Peroxidase activity was determined after incubation with substrate (0.03% H2 O2 and 1 mM 2,2'-azinodi(d-ethyl-benzthiazoline sulfonic acid-6) dissolved in 100 mM sodium citrate (pH 4.2) at 22° C. At the first visualization of color change A415 values were recorded.
# [3] = cited from earlier work
# Ah receptor = conditions: cited from earlier work
# [4] = system: total cell lysate protein tyrosylphosphorylation in X3 human lymphoblastoma cells; assay: ELISA with antiphosphotyrosine monoclonal antibody, X3 cell lysate; type: cell-based; conditions: 16 hours
# Method: The X3 human lymphoblastoma cells (Genetest, Wolburn, Mass.) were grown in 75 cm^2 T-flasks in RPMI 1640 medium (Gibco) containing 9% horse serum. Any cell or cell line expressing cytochrome P-450IA1 may be used. The cells were cultured at 37° C. in a 5% CO2 (balance air) environment. Cells were subcultured by centrifuging (1000 rpm, 3 minutes) and resuspended in fresh media to a volume of 50 mL (at a cell density of 1.0×10^6 cells/mL). The TCDD-corn oil solution was homogenized with serum to a final concentration of 0.10 μg/mL. The TCDD-serum was added at concentrations of 0, 0.02, 0.05, 0.1, 0.5 and 1.0 nM per flask and incubated for 16 hours. After the appropriate incubation time, the cells were harvested by centrifugation and washed three times (PBS, […]). A final cell count was then determined.
# ELISA were performed with 96-well microtiter plates precoated with antigen. X3 cell lysate was used as antigen and was prepared as a series of geometric dilutions ranging from 0.4 to 500 μg protein/mL PBS. One-tenth mL from each dilution was promptly pipetted into the wells of the microtiter plate in quadruplicate. […] Peroxidase activity was determined after incubation with substrate (0.03% H2 O2 and 1 mM 2,2'-azinodi(d-ethyl-benzthiazoline sulfonic acid-6) dissolved in 100 mM sodium citrate (pH 4.2) at 22° C. At the first visualization of color change A415 values were recorded.
# DBA/2 strain = conditions: DBA/2 mouse; cited from earlier work
structure (smiles),measurement,setting,value
"Clc1cc2c(cc1Cl)Oc1cc(Cl)c(Cl)cc1O2 [TCDD, 2,3,7,8-tetrachlorodibenzo-p-dioxin]",saturation half-life of binding,hepatic Ah receptor,less than 1 hour
same,half-life,[1],5.8 year
same,dose of maximal total protein tyrosylphosphorylation,"[2]; ELISA, i.p., 24 hours after dosing, female C57BL/6 mice",2 μg TCDD/kg
same,ED50,"[2]; Mus musculus, ip, ELISA, i.p., 24 hours after dosing, female C57BL/6 mice, read-out: median effective dose (ED50), total hepatic S-9 pTP",0.5 µg/kg
same,separation of ED50s for total protein or 44 kDalton pTP and EROD,"[2]; ratio to EROD ED50 (A3), C57BL/6 mice",10 factor
same,difference in whole body half-life between guinea pig and hamster,[3]; guinea pig versus hamster,3 fold
same,whole-body half-life,[3]; rodents,on the order of weeks
same,hepatic level of TCDD binding Ah receptor,Ah receptor; DBA/2 mouse,less than 1 fmol of receptor/mg of cytosolic protein
same,binding to DBA/2 mouse receptor,Ah receptor,Weaker binding
same,concentration of maximal total protein tyrosylphosphorylation,[4],1 nM
same,EC50,[4]; Homo sapiens,0.13 nM
same,susceptibility to TCDD toxicity,DBA/2 strain,relatively resistant
